Source: patent US20260241012A1, “1,8-NAPHTHYRIDIN-2-ONE HETEROBIFUNCTIONAL BCL6 DEGRADERS” (Treeline Biosciences, Inc., priority 2022, published 2026)

Target: T1, N-terminal HiBiT tagged BCL6 (Homo sapiens, UniProt P41182)
T1 construct: expressed in transfected cells; host or cells: HT1080 (ATCC CCL-121), stably transduced with lentivirus pLV-UBC-N-HiBiT-BCL6-PGK-puro
Test: HiBiT based degradation assay
Type: cell-based
Conditions: HT1080 cells expressing N-terminal HiBiT tagged BCL6, 5 hours of incubation; for Ymin (5 hr): BCL6 degradation normalized with DMSO control; for DC50: four-parameter logistic model, read-out: EC50 (5 hr)
Description: Human BCL6 protein coding open reading frame fused with N-terminal HiBiT coding sequence was synthesized from Integrated DNA Technologies (IDT). Next, the N-HiBiT-BCL6 sequence was cloned into pLV-UBC-PGK-Puro, a lentivirus plasmid purchased from Vectorbuilder, to generate pLV-UBC-N-HiBiT-BCL6-PGK-puro. Lentiviral particles were generated from Lenti-X™ 293T cells (Clontech) by co-transfection of pLV-UBC-N-HiBiT-BCL6-PGK-puro plasmids and lentiviral packaging plasmid mix (Cellecta). HT1080 [HT1080] (ATCC CCL-121) cells were infected with the lentivirus, and HT1080 cells stably integrated with the lentiviral vectors were established by incubation with 1 μg/mL puromycin (Thermofisher).
HT1080 cells expressing N-terminal HiBiT tagged BCL6 were dispensed into a 384-well plate pre-spotted with compounds at varying concentrations. Five thousand cells were seeded into each well in 40 μL of RPMI 1640 media plus 10% Fetal Bovine Serum (10082-147, Thermofisher). After 5 hours of incubation at 37° C. with 5% CO2, 30 μL of the NANO-GLOR HiBiT Lytic Detection System working solution (Promega) was added to each well and incubated at room temperature for 15 min. After incubation, luminescence was read on a PHERAstar FSX Plate Reader (BMG). BCL6 degradation at each indicated concentration was normalized with DMSO control. The BCL6 degradation curves were plotted using a four-parameter logistic model.

| Ymin (5 hr) | DC50 [nM] | SMILES |
| --- | --- | --- |
| +++ (30% ≤ Ymin < 50%) | 10 to 100 | CNC(=O)COc1cc2cc(Nc3nc(N4CCN(CC5CCN(c6cccc7c(N8CCC(=O)NC8=O)nn(C)c67)CC5)CC4)ncc3Cl)cnc2n(C(C)C)c1=O [Compound 109, 2-((6-((5-chloro-2-(4-((1-(3-(2,4-dioxotetrahydropyrimidin-1 (2H)-yl)-1-methyl-1H-indazol-7-yl)piperidin-4-yl)methyl)piperazin-1-yl)pyrimidin-4-yl)amino)-1-isopropyl-2-oxo-1,2-dihydro-1,8-naphthyridin-3-yl)oxy)-N-methylacetamide] |
| +++ (30% ≤ Ymin < 50%) | < 10 | CNC(=O)COc1cc2cc(Nc3nc(N4CCC(CN5CCCN(c6cccc7c(C8CCC(=O)NC8=O)nn(C)c67)CC5)CC4)ncc3Cl)cnc2n(C(C)C)c1=O (centres unmarked) [Compound 236, 2-[[6-[[5-chloro-2-[4-[[4-[3-(2,6-dioxo-3-piperidyl)-1-methyl-indazol-7-yl]-1,4-diazepan-1-yl]methyl]-1-piperidyl]pyrimidin-4-yl]amino]-1-isopropyl-2-oxo-1,8-naphthyridin-3-yl]oxy]-N-methyl-acetamide] |
| ++++ (Ymin < 30%) | < 10 | CNC(=O)COc1cc2cc(Nc3nc(N4CCC(CN5CCC(c6ccc7c(C8CCC(=O)NC8=O)nn(C)c7c6)CC5)CC4)ncc3Cl)cnc2n(C(C)C)c1=O (centres unmarked) [Compound 212, 2-((6-((5-chloro-2-(4-((4-(3-(2,6-dioxopiperidin-3-yl)-1-methyl-1H-indazol-6-yl)piperidin-1-yl)methyl)piperidin-1-yl)pyrimidin-4-yl)amino)-1-isopropyl-2-oxo-1,2-dihydro-1,8-naphthyridin-3-yl)oxy)-N-methylacetamide] |
| ++ (50% ≤ Ymin < 70%) | < 10 | CNC(=O)COc1cc2cc(Nc3nc(N4CCN(CC5CCN(c6ccc7c(C8CCC(=O)NC8=O)nn(C)c7c6)CC5)C[C@H]4CO)ncc3Cl)cnc2n(C(C)C)c1=O (stereo partly drawn) [Compound 151b, 2-((6-((5-chloro-2-((2S)-4-((1-(3-(2,6-dioxopiperidin-3-yl)-1-methyl-1H-indazol-6-yl)piperidin-4-yl)methyl)-2-(hydroxymethyl)piperazin-1-yl)pyrimidin-4-yl)amino)-1-isopropyl-2-oxo-1,2-dihydro-1,8-naphthyridin-3-yl)oxy)-N-methylacetamide] |
| +++ (30% ≤ Ymin < 50%) | < 10 | CNC(=O)COc1cc2cc(Nc3nc(N4CCC(CN5CCN(c6ccc7c(C8CCC(=O)NC8=O)nn(C)c7c6)C[C@H]5CO)CC4)ncc3Cl)cnc2n(C(C)C)c1=O (stereo partly drawn) [Compound 232a, 2-[[6-[[5-chloro-2-[4-[[(2S)-4-[3-(2,6-dioxo-3-piperidyl)-1-methyl-indazol-6-yl]-2-(hydroxymethyl)piperazin-1-yl]methyl]-1-piperidyl]pyrimidin-4-yl]amino]-1-isopropyl-2-oxo-1,8-naphthyridin-3-yl]oxy]-N-methyl-acetamide] |
| +++ (30% ≤ Ymin < 50%) | 10 to 100 | CNC(=O)COc1cc2cc(Nc3cc(N4CCC(CN5CCN(c6cccc7c(C8CCC(=O)NC8=O)nn(C)c67)CC5)CC4)ncc3Cl)cnc2n(C(C)C)c1=O (centres unmarked) [Compound 152, 2-((6-((5-chloro-2-(4-((4-(3-(2,6-dioxopiperidin-3-yl)-1-methyl-1H-indazol-7-yl)piperazin-1-yl)methyl)piperidin-1-yl)pyridin-4-yl)amino)-1-isopropyl-2-oxo-1,2-dihydro-1,8-naphthyridin-3-yl)oxy)-N-methylacetamide] |
| ++++ (Ymin < 30%) | < 10 | CNC(=O)COc1cc2cc(Nc3nc(N4CC[C@@H](CN5CCC(c6ccc7c(C8CCC(=O)NC8=O)nn(C)c7c6)CC5)[C@@H](F)C4)ncc3Cl)cnc2n(C(C)C)c1=O (relative stereo) [Compound 242b, 2-((6-((5-chloro-2-((3R,4S)-4-((4-(3-(2,6-dioxopiperidin-3-yl)-1-methyl-1H-indazol-6-yl)piperidin-1-yl)methyl)-3-fluoropiperidin-1-yl)pyrimidin-4-yl)amino)-1-isopropyl-2-oxo-1,2-dihydro-1,8-naphthyridin-3-yl)oxy)-N-methylacetamide] |
